{
  "source": "ChEMBL document CHEMBL3227994",
  "about": "“Novel application of proton nuclear magnetic resonance spectroscopy in the identification of 2'-chloronordiazepam metabolites in the dog” (J Med Chem, 1979)",
  "key": {"[1]": {"test": "Retention time of the compound", "format": "physicochemical"}, "[2]": {"test": "Drug excretion in Beagle dog urine at 10 mg/kg, po measured within 6 days by liquid scintillation spectrophotometric analysis", "format": "ADME, organism-based, Canis lupus familiaris", "parameters": "dose 10 mg/kg, route oral", "conditions": "in vivo, 144 h"}, "[3]": {"test": "Drug excretion in Beagle dog feces at 10 mg/kg, po measured within 6 days by liquid scintillation spectrophotometric analysis", "format": "ADME, organism-based, Canis lupus familiaris", "parameters": "dose 10 mg/kg, route oral", "conditions": "in vivo, 144 h"}, "[4]": {"test": "Drug excretion in Beagle dog urine at 10 mg/kg, po measured within 3 days by liquid scintillation spectrophotometric analysis", "format": "ADME, organism-based, Canis lupus familiaris", "parameters": "dose 10 mg/kg, route oral", "conditions": "in vivo, 72 h"}, "[5]": {"test": "Drug metabolism in Beagle dog urine assessed as formation of lorazepam at 10 mg/kg, po after 4 days by TLC analysis", "format": "ADME, organism-based, Canis lupus familiaris", "parameters": "dose 10 mg/kg, route oral", "conditions": "in vivo, 96 h"}, "[6]": {"test": "Drug metabolism in Beagle dog urine assessed as formation of 2'-chloro-4'-hydroxy nordiazepam at 10 mg/kg, po after 4 days by TLC analysis", "format": "ADME, organism-based, Canis lupus familiaris", "parameters": "dose 10 mg/kg, route oral", "conditions": "in vivo, 96 h"}, "[7]": {"test": "Drug metabolism in Beagle dog urine assessed as formation of 2'-chloro-9-hydroxy nordiazepam at 10 mg/kg, po after 4 days by TLC analysis", "format": "ADME, organism-based, Canis lupus familiaris", "parameters": "dose 10 mg/kg, route oral", "conditions": "in vivo, 96 h"}, "[8]": {"test": "Drug excretion in Beagle dog urine assessed as nonconjugated form of compound at 10 mg/kg, po after 4 days by two-dimensional TLC analysis", "format": "ADME, organism-based, Canis lupus familiaris", "parameters": "dose 10 mg/kg, route oral", "conditions": "read-out: Drug excretion"}, "[9]": {"test": "Drug excretion in Beagle dog urine assessed as nonconjugated form of lorazepam at 10 mg/kg, po after 4 days by two-dimensional TLC analysis", "format": "ADME, organism-based, Canis lupus familiaris", "parameters": "dose 10 mg/kg, route oral", "conditions": "in vivo, 96 h"}, "[10]": {"test": "Drug excretion in Beagle dog urine assessed as conjugated form of lorazepam at 10 mg/kg, po after 4 days by two-dimensional TLC analysis", "format": "ADME, organism-based, Canis lupus familiaris", "parameters": "dose 10 mg/kg, route oral", "conditions": "in vivo, 96 h"}, "[11]": {"test": "Drug excretion in Beagle dog urine assessed as nonconjugated form of 2'-chloro-4'-hydroxy nordiazepam at 10 mg/kg, po after 4 days by two-dimensional TLC analysis", "format": "ADME, organism-based, Canis lupus familiaris", "parameters": "dose 10 mg/kg, route oral", "conditions": "in vivo, 96 h"}, "[12]": {"test": "Drug excretion in Beagle dog urine assessed as conjugated form of 2'-chloro-4'-hydroxy nordiazepam at 10 mg/kg, po after 4 days by two-dimensional TLC analysis", "format": "ADME, organism-based, Canis lupus familiaris", "parameters": "dose 10 mg/kg, route oral", "conditions": "in vivo, 96 h"}, "[13]": {"test": "Drug excretion in Beagle dog urine assessed as nonconjugated form of 2'-chloro-9-hydroxy nordiazepam at 10 mg/kg, po after 4 days by two-dimensional TLC analysis", "format": "ADME, organism-based, Canis lupus familiaris", "parameters": "dose 10 mg/kg, route oral", "conditions": "in vivo, 96 h"}, "[14]": {"test": "Drug excretion in Beagle dog urine assessed as conjugated form of 2'-chloro-9-hydroxy nordiazepam at 10 mg/kg, po after 4 days by two-dimensional TLC analysis", "format": "ADME, organism-based, Canis lupus familiaris", "parameters": "dose 10 mg/kg, route oral", "conditions": "in vivo, 96 h"}, "[15]": {"test": "Drug excretion in Beagle dog feces assessed as nonconjugated form of compound at 10 mg/kg, po after 4 days by two-dimensional TLC analysis", "format": "ADME, organism-based, Canis lupus familiaris", "parameters": "dose 10 mg/kg, route oral", "conditions": "faeces, read-out: Drug excretion"}, "[16]": {"test": "Drug excretion in Beagle dog feces assessed as conjugated form of compound at 10 mg/kg, po after 4 days by two-dimensional TLC analysis", "format": "ADME, organism-based, Canis lupus familiaris", "parameters": "dose 10 mg/kg, route oral", "conditions": "in vivo, 96 h"}, "[17]": {"test": "Drug excretion in Beagle dog feces assessed as nonconjugated form of lorazepam at 10 mg/kg, po after 4 days by two-dimensional TLC analysis", "format": "ADME, organism-based, Canis lupus familiaris", "parameters": "dose 10 mg/kg, route oral", "conditions": "in vivo, 96 h"}, "[18]": {"test": "Drug excretion in Beagle dog feces assessed as conjugated form of lorazepam at 10 mg/kg, po after 4 days by two-dimensional TLC analysis", "format": "ADME, organism-based, Canis lupus familiaris", "parameters": "dose 10 mg/kg, route oral", "conditions": "in vivo, 96 h"}, "[19]": {"test": "Drug excretion in Beagle dog feces assessed as nonconjugated form of 2'-chloro-4'-hydroxy nordiazepam at 10 mg/kg, po after 4 days by two-dimensional TLC analysis", "format": "ADME, organism-based, Canis lupus familiaris", "parameters": "dose 10 mg/kg, route oral", "conditions": "in vivo, 96 h"}, "[20]": {"test": "Drug excretion in Beagle dog feces assessed as conjugated form of 2'-chloro-4'-hydroxy nordiazepam at 10 mg/kg, po after 4 days by two-dimensional TLC analysis", "format": "ADME, organism-based, Canis lupus familiaris", "parameters": "dose 10 mg/kg, route oral", "conditions": "in vivo, 96 h"}, "[21]": {"test": "Drug excretion in Beagle dog feces assessed as nonconjugated form of 2'-chloro-9-hydroxy nordiazepam at 10 mg/kg, po after 4 days by two-dimensional TLC analysis", "format": "ADME, organism-based, Canis lupus familiaris", "parameters": "dose 10 mg/kg, route oral", "conditions": "in vivo, 96 h"}, "[22]": {"test": "Drug excretion in Beagle dog feces assessed as conjugated form of 2'-chloro-9-hydroxy nordiazepam at 10 mg/kg, po after 4 days by two-dimensional TLC analysis", "format": "ADME, organism-based, Canis lupus familiaris", "parameters": "dose 10 mg/kg, route oral", "conditions": "in vivo, 96 h"}, "[23]": {"test": "Drug excretion in dog urine assessed as conjugated form of lorazepam at 10 mg/kg, po", "format": "ADME, organism-based, Canis lupus familiaris", "parameters": "dose 10 mg/kg, route oral", "conditions": "in vivo"}, "[24]": {"test": "Drug excretion in dog urine assessed as conjugated form of lorazepam at 10 mg/kg, iv", "format": "ADME, organism-based, Canis lupus familiaris", "parameters": "dose 10 mg/kg, route intravenous", "conditions": "in vivo"}},
  "data": [
    {"smiles": "O=C1Nc2ccc(Cl)cc2C(c2ccccc2Cl)=NC1O", "note": "(centres undefined) [LORAZEPAM]", "values": [
      {"measurement": "Retention_time", "setting": "[1]", "value": 3.8, "unit": "min"}
    ]},
    {"smiles": "O=C1CN=C(c2ccccc2Cl)c2cc(Cl)ccc2N1", "note": "[DELORAZEPAM]", "values": [
      {"measurement": "Drug excretion", "setting": "[2]", "value": 60.5, "unit": "%ID"},
      {"measurement": "Drug excretion", "setting": "[3]", "value": 28.5, "unit": "%ID"},
      {"measurement": "Drug excretion", "setting": "[4]", "value": 58, "unit": "%ID"},
      {"measurement": "Drug metabolism", "setting": "[5]", "value": 10.7, "unit": "mg.equiv"},
      {"measurement": "Drug metabolism", "setting": "[6]", "value": 1.6, "unit": "mg.equiv"},
      {"measurement": "Drug metabolism", "setting": "[7]", "value": 1.7, "unit": "mg.equiv"},
      {"measurement": "dose excreted at 96 h", "setting": "[8]", "value": 1.1, "unit": "%"},
      {"measurement": "Drug excretion", "setting": "[9]", "value": 0.4, "unit": "%ID"},
      {"measurement": "Drug excretion", "setting": "[10]", "value": 15.3, "unit": "%ID"},
      {"measurement": "Drug excretion", "setting": "[11]", "value": 1, "unit": "%ID"},
      {"measurement": "Drug excretion", "setting": "[12]", "value": 2.8, "unit": "%ID"},
      {"measurement": "Drug excretion", "setting": "[13]", "value": 1.1, "unit": "%ID"},
      {"measurement": "Drug excretion", "setting": "[14]", "value": 2.5, "unit": "%ID"},
      {"measurement": "dose excreted at 96 h", "setting": "[15]", "value": 2.7, "unit": "%"},
      {"measurement": "Drug excretion", "setting": "[16]", "value": 3.8, "unit": "%ID"},
      {"measurement": "Drug excretion", "setting": "[17]", "value": 4.2, "unit": "%ID"},
      {"measurement": "Drug excretion", "setting": "[18]", "value": 19.9, "unit": "%ID"},
      {"measurement": "Drug excretion", "setting": "[19]", "value": 1.5, "unit": "%ID"},
      {"measurement": "Drug excretion", "setting": "[20]", "value": 5.3, "unit": "%ID"},
      {"measurement": "Drug excretion", "setting": "[21]", "value": 3.7, "unit": "%ID"},
      {"measurement": "Drug excretion", "setting": "[22]", "value": 7.3, "unit": "%ID"},
      {"measurement": "Drug excretion", "setting": "[23]", "value": 13, "unit": "%ID"},
      {"measurement": "Drug excretion", "setting": "[24]", "value": 16, "unit": "%ID"}
    ]}
  ]
}
